Test results as given in PubChem BioAssay (NCI).
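Each compound was tested at five concentrations against cells in 96-well plates for 48 hours. The concentration for full growth arrest is given as TGI.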

Columns and labels:
Experiment in all cases: NCI-60 cell line screen, 48 h
786-0 renal = test system: 786-0 renal
A549 NSCLC = test system: A549 NSCLC
CAKI-1 renal = test system: CAKI-1 renal
CCRF-CEM leukemia = test system: CCRF-CEM leukemia
COLO 205 colon = test system: COLO 205 colon
DU-145 prostate = test system: DU-145 prostate
EKVX NSCLC = test system: EKVX NSCLC
HCC-2998 colon = test system: HCC-2998 colon
HCT-116 colon = test system: HCT-116 colon
HCT-15 colon = test system: HCT-15 colon
HL-60(TB) leukemia = test system: HL-60(TB) leukemia
HOP-62 NSCLC = test system: HOP-62 NSCLC
HS 578T breast = test system: HS 578T breast
HT29 colon = test system: HT29 colon
IGROV1 ovarian = test system: IGROV1 ovarian
K-562 leukemia = test system: K-562 leukemia
KM12 colon = test system: KM12 colon
LOX IMVI melanoma = test system: LOX IMVI melanoma
M14 melanoma = test system: M14 melanoma
MALME-3M melanoma = test system: MALME-3M melanoma
MCF7 breast = test system: MCF7 breast
MDA-MB-231 breast = test system: MDA-MB-231 breast
MDA-MB-435 = test system: MDA-MB-435
MDA-N = test system: MDA-N
MOLT-4 leukemia = test system: MOLT-4 leukemia
NCI-H226 lung = test system: NCI-H226 lung
NCI-H23 lung = test system: NCI-H23 lung
NCI-H460 lung = test system: NCI-H460 lung
NCI-H522 lung = test system: NCI-H522 lung
NCI/ADR-RES ovarian = test system: NCI/ADR-RES ovarian
OVCAR-3 ovarian = test system: OVCAR-3 ovarian
OVCAR-5 ovarian = test system: OVCAR-5 ovarian
OVCAR-8 ovarian = test system: OVCAR-8 ovarian
PC-3 prostate = test system: PC-3 prostate
RPMI-8226 leukemia = test system: RPMI-8226 leukemia
RXF 393 renal = test system: RXF 393 renal
SF-268 CNS = test system: SF-268 CNS
SF-295 CNS = test system: SF-295 CNS
SF-539 CNS = test system: SF-539 CNS
SK-MEL-2 melanoma = test system: SK-MEL-2 melanoma
SK-MEL-28 melanoma = test system: SK-MEL-28 melanoma
SK-MEL-5 melanoma = test system: SK-MEL-5 melanoma
SK-OV-3 ovarian = test system: SK-OV-3 ovarian
SN12C renal = test system: SN12C renal
SNB-19 CNS = test system: SNB-19 CNS
SNB-75 CNS = test system: SNB-75 CNS
SW-620 colon = test system: SW-620 colon
T-47D breast = test system: T-47D breast
U251 CNS = test system: U251 CNS
UACC-257 melanoma = test system: UACC-257 melanoma
UACC-62 melanoma = test system: UACC-62 melanoma
UO-31 renal = test system: UO-31 renal
A498 renal = test system: A498 renal
ACHN renal = test system: ACHN renal
BT-549 breast = test system: BT-549 breast
OVCAR-4 ovarian = test system: OVCAR-4 ovarian
TK-10 renal = test system: TK-10 renal

## COc1ccc(/C=C/C(=O)CC(=O)/C=C/c2ccc(OC)cc2)cc1
786-0 renal
  TGI: 89.1 µM
A549 NSCLC
  TGI: > 100 µM
CAKI-1 renal
  TGI: > 100 µM
CCRF-CEM leukemia
  TGI: 54.9 µM
COLO 205 colon
  TGI: > 100 µM
DU-145 prostate
  TGI: > 100 µM
EKVX NSCLC
  TGI: > 100 µM
HCC-2998 colon
  TGI: > 100 µM
HCT-116 colon
  TGI: 34.5 µM
HCT-15 colon
  TGI: > 100 µM
HL-60(TB) leukemia
  TGI: 64.5 µM
HOP-62 NSCLC
  TGI: > 100 µM
HS 578T breast
  TGI: 99.8 µM
HT29 colon
  TGI: > 100 µM
IGROV1 ovarian
  TGI: > 100 µM
K-562 leukemia
  TGI: > 100 µM
KM12 colon
  TGI: > 100 µM
LOX IMVI melanoma
  TGI: 25.1 µM
M14 melanoma
  TGI: > 100 µM
MALME-3M melanoma
  TGI: > 100 µM
MCF7 breast
  TGI: > 100 µM
MDA-MB-231 breast
  TGI: > 100 µM
MDA-MB-435
  TGI: > 100 µM
MDA-N
  TGI: > 100 µM
MOLT-4 leukemia
  TGI: 70.8 µM
NCI-H226 lung
  TGI: > 100 µM
NCI-H23 lung
  TGI: 95.1 µM
NCI-H460 lung
  TGI: > 100 µM
NCI-H522 lung
  TGI: 67 µM
NCI/ADR-RES ovarian
  TGI: > 100 µM
OVCAR-3 ovarian
  TGI: 75.5 µM
OVCAR-5 ovarian
  TGI: > 100 µM
OVCAR-8 ovarian
  TGI: 52.7 µM
PC-3 prostate
  TGI: > 100 µM
RPMI-8226 leukemia
  TGI: > 100 µM
RXF 393 renal
  TGI: 80 µM
SF-268 CNS
  TGI: > 100 µM
SF-295 CNS
  TGI: > 100 µM
SF-539 CNS
  TGI: 78.7 µM
SK-MEL-2 melanoma
  TGI: > 100 µM
SK-MEL-28 melanoma
  TGI: > 100 µM
SK-MEL-5 melanoma
  TGI: > 100 µM
SK-OV-3 ovarian
  TGI: > 100 µM
SN12C renal
  TGI: > 100 µM
SNB-19 CNS
  TGI: > 100 µM
SNB-75 CNS
  TGI: > 100 µM
SW-620 colon
  TGI: > 100 µM
T-47D breast
  TGI: > 100 µM
U251 CNS
  TGI: > 100 µM
UACC-257 melanoma
  TGI: > 100 µM
UACC-62 melanoma
  TGI: > 100 µM
UO-31 renal
  TGI: > 100 µM

## O=C(N/N=C/c1ccccc1O)c1ccccc1Nc1ccccc1C(=O)N/N=C/c1ccccc1O
786-0 renal
  TGI: > 24.2 µM
A498 renal
  TGI: > 100 µM
A549 NSCLC
  TGI: > 100 µM
ACHN renal
  TGI: > 100 µM
BT-549 breast
  TGI: > 100 µM
CAKI-1 renal
  TGI: > 100 µM
CCRF-CEM leukemia
  TGI: > 100 µM
COLO 205 colon
  TGI: > 100 µM
DU-145 prostate
  TGI: > 100 µM
EKVX NSCLC
  TGI: > 100 µM
HCC-2998 colon
  TGI: > 100 µM
HCT-116 colon
  TGI: 3.5 µM
HCT-15 colon
  TGI: > 100 µM
HL-60(TB) leukemia
  TGI: > 100 µM
HOP-62 NSCLC
  TGI: > 20.7 µM
HT29 colon
  TGI: 4.99 µM
IGROV1 ovarian
  TGI: > 100 µM
K-562 leukemia
  TGI: > 100 µM
KM12 colon
  TGI: > 100 µM
LOX IMVI melanoma
  TGI: > 100 µM
M14 melanoma
  TGI: 6.35 µM
MALME-3M melanoma
  TGI: 6.09 µM
MCF7 breast
  TGI: > 100 µM
MDA-MB-231 breast
  TGI: > 100 µM
MDA-MB-435
  TGI: > 30.7 µM
MDA-N
  TGI: > 100 µM
NCI-H226 lung
  TGI: 3.79 µM
NCI-H23 lung
  TGI: > 100 µM
NCI-H460 lung
  TGI: > 100 µM
NCI-H522 lung
  TGI: > 100 µM
NCI/ADR-RES ovarian
  TGI: 5.44 µM
OVCAR-3 ovarian
  TGI: > 100 µM
OVCAR-4 ovarian
  TGI: > 100 µM
OVCAR-5 ovarian
  TGI: > 100 µM
OVCAR-8 ovarian
  TGI: 11.7 µM
PC-3 prostate
  TGI: > 100 µM
RXF 393 renal
  TGI: > 100 µM
SF-268 CNS
  TGI: 2.28 µM
SF-295 CNS
  TGI: > 100 µM
SF-539 CNS
  TGI: > 100 µM
SK-MEL-2 melanoma
  TGI: > 100 µM
SK-MEL-28 melanoma
  TGI: 0.865 µM
SK-MEL-5 melanoma
  TGI: 8.15 µM
SK-OV-3 ovarian
  TGI: > 100 µM
SNB-19 CNS
  TGI: > 100 µM
SNB-75 CNS
  TGI: > 100 µM
SW-620 colon
  TGI: > 100 µM
T-47D breast
  TGI: > 100 µM
TK-10 renal
  TGI: > 100 µM
U251 CNS
  TGI: > 100 µM
UACC-257 melanoma
  TGI: > 100 µM
UACC-62 melanoma
  TGI: > 100 µM
UO-31 renal
  TGI: > 100 µM
